Active and inactive are the calls of the source. The rule behind the calls is not given here.

The record followed here is PubChem BioAssay AID1033 (Sanford-Burnham Center for Chemical Genomics, 2008).

For this assay, the target named is Chaperone protein DnaK (Escherichia coli (strain K12)) (UniProt P0A6Y8). Description: E. coli DnaK SBD ligand binding – biophysical, NMR, chaperone (AID 1033). The conditions noted are these: Purified DnaK SBD.
Chain of Chaperone protein DnaK (Escherichia coli (strain K12)) (P0A6Y8 whole entry, looked up): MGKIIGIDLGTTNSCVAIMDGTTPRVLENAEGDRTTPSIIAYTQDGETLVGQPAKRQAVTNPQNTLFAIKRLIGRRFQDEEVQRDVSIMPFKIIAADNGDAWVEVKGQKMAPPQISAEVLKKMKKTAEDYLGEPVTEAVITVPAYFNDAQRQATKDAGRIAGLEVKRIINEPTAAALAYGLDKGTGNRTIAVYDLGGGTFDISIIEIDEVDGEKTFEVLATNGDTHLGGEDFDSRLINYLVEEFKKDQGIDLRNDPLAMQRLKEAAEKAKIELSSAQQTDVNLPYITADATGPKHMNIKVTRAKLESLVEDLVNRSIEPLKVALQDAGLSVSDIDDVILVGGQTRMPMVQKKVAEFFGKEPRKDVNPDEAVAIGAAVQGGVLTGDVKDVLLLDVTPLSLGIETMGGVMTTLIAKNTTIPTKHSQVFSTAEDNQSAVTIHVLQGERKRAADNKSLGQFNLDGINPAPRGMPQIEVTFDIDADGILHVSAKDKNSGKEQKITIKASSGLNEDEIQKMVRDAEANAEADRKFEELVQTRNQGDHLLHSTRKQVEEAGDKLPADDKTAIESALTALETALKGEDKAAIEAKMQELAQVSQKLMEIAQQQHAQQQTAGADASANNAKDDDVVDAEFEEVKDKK

Regarding `O=[N+]([O-])c1cccc2c1nnn2C(CO)OCCO` (stereo not drawn), the Kd was > 4 mM (inactive).

In the case of `Cc1cccn2cc(CNc3ccccc3)nc12`, the Kd was > 4 mM (inactive).

Regarding `CCNS(=O)(=O)c1cc(Br)ccc1OC`, the Kd is > 4 mM (inactive).

Consider `O=C(O)c1ccc(NC(=O)c2cccs2)cc1`, for which the Kd is > 4 mM (inactive).

As for `O=c1n(-c2ccccc2)c(=O)n2n1CCCC2`, the Kd is > 4 mM (inactive).

For `CC12CCC3C(CC3(C)C)C(C)(CCC1=O)O2` (stereo not drawn), the Kd is > 4 mM (inactive).

On to `OCc1cc(-c2cccs2)on1`, for which the Kd is > 4 mM (inactive).

On to `Cn1nnc2cc(C(=O)Nc3cccnc3)ccc21`, for which the Kd is > 4 mM (inactive).

As for `CCOC(=O)c1c(C)cc(O)c(C=O)c1O`, the Kd is > 4 mM (inactive).

Regarding `CCn1c(=O)cc(N2CCC3(CC2)OCCO3)[nH]c1=O`, the Kd is > 4 mM (inactive).

Take `O=C(O)/C=C/C=C/c1ccccc1`: the Kd is > 4 mM (inactive).

Turning to `Nc1ncnc(Nc2ccccc2C(F)(F)F)n1`, the Kd is > 4 mM (inactive).

For the molecule `NC(=O)c1ccc(SCC(=O)O)c([N+](=O)[O-])c1`, the Kd was > 4 mM (inactive).

As for `COc1ccccc1Nc1nncc(=O)[nH]1`, the Kd was > 4 mM (inactive).

Regarding `O=C(O)CCC1NCC2CC1CN1CCCCC21` (stereo not drawn), the Kd was > 4 mM (inactive).

On to `NS(=O)(=O)c1ccc(N=Cc2cccs2)cc1`, for which the Kd is > 4 mM (inactive).

In the case of `CNC(=O)C(=O)Nc1cccc(Cl)c1`, the Kd is > 4 mM (inactive).

Turning to `O=C(O)Cn1cc(C(=O)C2CC2)c2ccccc21`, the Kd was > 4 mM (inactive).

On to `CC(=O)c1cc(C(N)=O)c(=S)[nH]c1C`, for which the Kd is > 4 mM (inactive).

Regarding `COC(=O)Cc1csc(N)n1`, the Kd is > 4 mM (inactive).

As to `COc1ccc(NC(=O)C(N)=O)cc1Cl`, the Kd is > 4 mM (inactive).

Regarding `CCCCCC1C(=O)CCC1CC(=O)O` (stereo not drawn), the Kd was > 4 mM (inactive).

As for `O=c1cc(-c2ccccc2)oc2c(O)c(O)ccc12`, the Kd was > 4 mM (inactive).

Consider `OC1CCCN(Cc2ccccc2)C1` (stereo not drawn), for which the Kd was > 4 mM (inactive).

As for `CNC(C)[C@H](O)c1ccccc1` (stereo partly drawn), the Kd was > 4 mM (inactive).

For `O=c1[nH]c(NCCO)nnc1Cc1ccccc1`, the Kd is > 4 mM (inactive).

For `O=c1[nH]c(=O)n(-c2ccc(F)cc2)c(O)c1/C=C1/C=CC=N1`, the Kd was > 4 mM (inactive).

Take `COC(=O)c1nc(-c2ccccc2)oc1N(C)C`: the Kd is > 4 mM (inactive).

For `COc1ccc2c(c1)C(NC(C)=O)C(=O)N2C` (stereo not drawn), the Kd was > 4 mM (inactive).

For the molecule `COc1cc2ccc(=O)oc2c2ccoc12`, the Kd was > 4 mM (inactive).

Take `CC1=NN(C(N)=S)C(C)(C)C1`: the Kd is > 4 mM (inactive).

As to `CC(C)(C)Cc1nc(-c2ccccn2)no1`, the Kd is > 4 mM (inactive).

For the molecule `COC(=O)C[C@@H]1C2(C)C(=O)[C@@H](CC3=C4C=C(OC)O[C@@H](c5ccoc5)[C@]4(C)CCC32)[C@H](O)C1(C)C` (stereo partly drawn), the Kd was > 4 mM (inactive).

Regarding `COc1cc(O)ccc1C(C)=O`, the Kd was > 4 mM (inactive).

Take `Cn1cnc2c(=S)[nH]c(=O)n(Cc3ccccc3)c21`: the Kd is > 4 mM (inactive).

Regarding `CSc1nnc(CN2CCSCC2)n1C`, the Kd was > 4 mM (inactive).

`COc1ccccc1NC(=O)/C=N/O`: the Kd is > 4 mM (inactive).

Regarding `CC(C)(C)NC(=O)N1CCC(C(N)=O)CC1`, the Kd was > 4 mM (inactive).

With `Cn1c(CO)nc2ccccc21`, the Kd was > 4 mM (inactive).

Regarding `Oc1ccc(C(=S)N2CCOCC2)cc1`, the Kd was > 4 mM (inactive).

Consider `Cc1ccsc1/C=c1\sc2ncnn2c1=O`, for which the Kd is > 4 mM (inactive).

Take `OC1CCC(C(F)(F)F)CC1` (stereo not drawn): the Kd was > 4 mM (inactive).

Turning to `COc1ccc(-c2c(O)c3c(OC)c4c(cc3oc2=O)OC(C)(C)CC4)cc1`, the Kd is > 4 mM (inactive).

On to `Cn1c(=O)c2ccccc2n(Cc2ccccc2F)c1=O`, for which the Kd is > 4 mM (inactive).

For `CC1(c2ccncc2)NC(=O)NC1=O` (stereo not drawn), the Kd is > 4 mM (inactive).

In the case of `N#Cc1c[nH]n2c(=O)cc(Cc3ccccc3)nc12`, the Kd is > 4 mM (inactive).

With `O=C1CCCc2c(O)cccc21`, the Kd was > 4 mM (inactive).

As for `O=C1CCC(=O)N1CNc1ccccc1`, the Kd is > 4 mM (inactive).

As for `O=S1(=O)CCC2CC=CCC21` (stereo not drawn), the Kd was > 4 mM (inactive).

On to `COc1ccc2c(c1)[nH]c1c(C)nccc12`, for which the Kd was > 4 mM (inactive).

For `Cc1nc(-c2ccc(CO)s2)cs1`, the Kd is > 4 mM (inactive).

Turning to `Fc1cc2nccnc2cc1N1CCSCC1`, the Kd was > 4 mM (inactive).

In the case of `CC(=O)O[C@H]1CC[C@@]2(C)C(C[C@@H](OC(C)=O)[C@@]3(C)C4=CC(=O)O[C@@H](c5ccoc5)[C@]4(C)CCC23)C1(C)C` (stereo partly drawn), the Kd was > 4 mM (inactive).

In the case of `COc1ccc2c(CC(=O)O)coc2c1`, the Kd is > 4 mM (inactive).

Turning to `O=C(Nc1cccnc1)c1cccs1`, the Kd was > 4 mM (inactive).

As for `COc1c(O)cc2oc3cc(O)c(CC=C(C)C)c(O)c3c(=O)c2c1CC=C(C)C`, the Kd is > 4 mM (inactive).

Regarding `CN(C)S(=O)(=O)c1ccc(N2CCOCC2)nc1`, the Kd is > 4 mM (inactive).

`O=C(O)c1cnc2n(c1=O)CCS2`: the Kd is > 4 mM (inactive).

Regarding `Cc1n[nH]c(C)c1CC(=O)O`, the Kd was > 4 mM (inactive).

On to `COc1cc(/C=C/C(=O)O)ccc1O`, for which the Kd is > 4 mM (inactive).

Turning to `CCn1cnc2scc(-c3ccccc3)c2c1=O`, the Kd is > 4 mM (inactive).

With `CNC(=O)C(=O)Nc1ccc(C)c(C)c1`, the Kd is > 4 mM (inactive).

Regarding `O=C(Nc1ccc2c(c1)CCC2)c1cnccn1`, the Kd is > 4 mM (inactive).

For `NC(=O)CN1C(=O)c2cccc3cccc1c23`, the Kd was > 4 mM (inactive).

Consider `Cc1nc(-c2ccccc2)ncc1C(=O)O`, for which the Kd is > 4 mM (inactive).

With `CC(=O)Nc1ccc(N2CCOCC2)cc1`, the Kd was > 4 mM (inactive).

`O=C1N/C(=N\c2ccccn2)SC1Cc1ccccc1` (stereo not drawn): the Kd was > 4 mM (inactive).

Turning to `Nc1cccc(C(=O)Nc2ccc(N)cc2Cl)c1`, the Kd is > 4 mM (inactive).

`C/C=C(\C)c1nnc(NC(=O)C(C)C)s1`: the Kd is > 4 mM (inactive).

Turning to `Cc1cc(C(=O)Nc2cccnc2)cs1`, the Kd is > 4 mM (inactive).

For the molecule `CC(=O)Oc1ccc(-c2nc(-c3cccnc3)no2)cc1`, the Kd was > 4 mM (inactive).

As to `COc1ccc(/C=C/c2cc(O)cc(O)c2)cc1`, the Kd is > 4 mM (inactive).

In the case of `C=CCc1ccc(O)c(OC)c1`, the Kd was > 4 mM (inactive).

As for `O=C(NCc1ccccc1)c1cnsn1`, the Kd was > 4 mM (inactive).

Consider `Cc1ccc(C)n1NC(=O)c1cccs1`, for which the Kd is > 4 mM (inactive).

In the case of `Cc1nc(-c2ccccc2)sc1CN`, the Kd was > 4 mM (inactive).

As to `Cc1ccc(SCCN2C(=O)NC(C)(C)C2=O)cc1`, the Kd is > 4 mM (inactive).

On to `CCNC(=S)Nc1c(C)n(C)n(-c2ccccc2)c1=O`, for which the Kd was > 4 mM (inactive).

A word on the Kd: it is the concentration at which binding is half-saturated.
